Source: US20230278972A1, “SUBSTITUTED HALOALKYL SULFONANILIDE HERBICIDES” (FMC Corporation, priority 2020, published 2023)

What was measured:
Type in all cases: in vivo
kochia (Bassia scoparia) [1] = assay: Test A postemergence, kochia; conditions: Postemergence, 0 to 100 scale (0 no effect, 100 complete control)
Procedure, shortened: (§1)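 Seeds are sown in loam mixed with sand and sprayed on the soil surface right after planting for the preemergence test. Postemergence pots are sprayed once seedlings reach 2 to 10 cm at the one- to two-leaf stage. The same surfactant-containing, non-phytotoxic solvent formulation serves both.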

[2] = test system: Ryegrass, Italian (Italian ryegrass, Lolium multiflorum); assay: Test A preemergence, Ryegrass, Italian; conditions: Preemergence; for Ryegrass, Italian plant response rating: 125 g ai/ha, visual injury on 0 to 100 scale (0 no effect, 100 complete control), approximately 10 days; for Plant response rating, Ryegrass, Italian: 0 to 100 scale (0 no effect, 100 complete control)
Procedure, shortened: as §1

[3] = test system: Ryegrass, Italian (Italian ryegrass, Lolium multiflorum); assay: Test A postemergence, Ryegrass, Italian; conditions: Postemergence, 0 to 100 scale (0 no effect, 100 complete control)
Procedure, shortened: as §1

corn (Zea mays) = assay: Test A postemergence, corn; conditions: Postemergence, 0 to 100 scale (0 no effect, 100 complete control)
Procedure, shortened: as §1

[4] = test system: pigweed (Amaranthus retroflexus); assay: Test A postemergence, pigweed; conditions: Postemergence, 0 to 100 scale (0 no effect, 100 complete control)
Procedure, shortened: as §1

kochia (Bassia scoparia) [5] = assay: Test A preemergence, kochia; conditions: Preemergence; for Kochia plant response rating: 125 g ai/ha, visual injury on 0 to 100 scale (0 no effect, 100 complete control), approximately 10 days; for Plant response rating, Kochia: 0 to 100 scale (0 no effect, 100 complete control)
Procedure, shortened: as §1

[6] = test system: ragweed (common ragweed, Ambrosia artemisiifolia); assay: Test A preemergence, ragweed; conditions: Preemergence; for Ragweed plant response rating: 125 g ai/ha, visual injury on 0 to 100 scale (0 no effect, 100 complete control), approximately 10 days; for Plant response rating, Ragweed: 0 to 100 scale (0 no effect, 100 complete control)
Procedure, shortened: as §1

[7] = test system: barnyardgrass (Echinochloa crus-galli); assay: Test A postemergence, barnyardgrass; conditions: Postemergence, 0 to 100 scale (0 no effect, 100 complete control)
Procedure, shortened: (§2)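 Compounds in non-phytotoxic solvent with surfactant. Soil: loam/sand. Preemergence via directed soil spray after seeding; postemergence on seedlings 2–10 cm, one- to two-leaf.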

[8] = test system: Foxtail, Giant (giant foxtail, Setaria faberi); assay: Test A postemergence, Foxtail, Giant; conditions: Postemergence, 0 to 100 scale (0 no effect, 100 complete control)
Procedure, shortened: as §1

[9] = test system: galium (catchweed bedstraw, Galium aparine); assay: Test A postemergence, galium; conditions: Postemergence, 0 to 100 scale (0 no effect, 100 complete control)
Procedure, shortened: as §2

[10] = test system: Foxtail, Giant (giant foxtail, Setaria faberi); assay: Test A preemergence, Foxtail, Giant; conditions: Preemergence; for Foxtail, Giant plant response rating: 125 g ai/ha, visual injury on 0 to 100 scale (0 no effect, 100 complete control), approximately 10 days; for Plant response rating, Foxtail, Giant: 0 to 100 scale (0 no effect, 100 complete control)
Procedure, shortened: as §1

[11] = test system: pigweed (Amaranthus retroflexus); assay: Test A preemergence, pigweed; conditions: for Pigweed plant response rating: 125 g ai/ha, visual injury on 0 to 100 scale (0 no effect, 100 complete control), approximately 10 days; for Plant response rating, Pigweed: 0 to 100 scale (0 no effect, 100 complete control)
Procedure, shortened: as §2

[12] = test system: blackgrass (Alopecurus myosuroides); assay: Test A postemergence, blackgrass; conditions: Postemergence, 0 to 100 scale (0 no effect, 100 complete control)
Procedure, shortened: as §1

[13] = test system: ragweed (common ragweed, Ambrosia artemisiifolia); assay: Test A postemergence, ragweed; conditions: Postemergence, 0 to 100 scale (0 no effect, 100 complete control)
Procedure, shortened: as §1

[14] = test system: barnyardgrass (Echinochloa crus-galli); assay: Test A preemergence, barnyardgrass; conditions: Preemergence; for Barnyardgrass plant response rating: 125 g ai/ha, visual injury on 0 to 100 scale (0 no effect, 100 complete control), approximately 10 days; for Plant response rating, Barnyardgrass: 0 to 100 scale (0 no effect, 100 complete control)
Procedure, shortened: as §1

[15] = test system: wheat (Triticum aestivum); assay: Test A postemergence, wheat; conditions: Postemergence, 0 to 100 scale (0 no effect, 100 complete control)
Procedure, shortened: as §2

[16] = 125 g ai/ha, visual injury approx. 10 days
[17] = 500 g ai/ha, visual injury, approx. 10 days
[18] = 1000 g ai/ha, visual injury, approx. 10 days

SMILES	Plant response rating, Kochia (kochia (Bassia scoparia) [1]; [16])	Plant response rating, Kochia (kochia (Bassia scoparia) [1]; [17])	Ryegrass, Italian plant response rating [2]	Plant response rating, Ryegrass, Italian ([2]; 500 g ai/ha)	Plant response rating, Ryegrass, Italian [3, 16]	Plant response rating, Ryegrass, Italian [3, 17]	Plant response rating, Corn (corn (Zea mays); [16])	Plant response rating, Corn (corn (Zea mays); [17])	Plant response rating, Pigweed [4, 16]	Plant response rating, Pigweed [4, 17]	Kochia plant response rating (kochia (Bassia scoparia) [5])	Plant response rating, Kochia (kochia (Bassia scoparia) [5]; 500 g ai/ha)	Ragweed plant response rating [6]	Plant response rating, Ragweed ([6]; 500 g ai/ha)	Plant response rating, Barnyardgrass [7, 16]	Plant response rating, Barnyardgrass [7, 17]	Plant response rating, Foxtail, Giant [8, 16]	Plant response rating, Foxtail, Giant [8, 17]	Plant response rating, Galium [9, 16]	Plant response rating, Galium [9, 17]	further results
Cc1cc(Cl)c(NS(=O)(=O)C(F)(F)F)cc1C(=O)N1CCC(C#N)CC1 [Compound 17]	60	70	80	100	0	70	10	20	60	70	70	90	80	80	30	90	90	90	80	90	Foxtail, Giant plant response rating [10]: 100; Plant response rating, Foxtail, Giant ([10]; 500 g ai/ha): 100; Pigweed plant response rating [11]: 90; Plant response rating, Pigweed ([11]; 500 g ai/ha): 100; Plant response rating, Blackgrass [12, 16]: 0; Plant response rating, Blackgrass [12, 17]: 30; Plant response rating, Ragweed [13, 16]: 80; Plant response rating, Ragweed [13, 17]: 90; Barnyardgrass plant response rating [14]: 100; Plant response rating, Barnyardgrass ([14]; 500 g ai/ha): 100; Plant response rating, Wheat [15, 16]: 70; Plant response rating, Wheat [15, 17]: 60
COC1CCN(C(=O)c2cc(NS(=O)(=O)C(F)(F)F)c(C)cc2C)CC1 [Compound 19]	–	–	–	–	–	–	–	–	–	–	–	–	–	–	–	–	–	–	–	–	Plant response rating, Kochia (kochia (Bassia scoparia) [1]; [18]): 70; Plant response rating, Ryegrass, Italian ([2]; 1000 g ai/ha): 90; Plant response rating, Ryegrass, Italian [3, 18]: 50; Plant response rating, Corn (corn (Zea mays); [18]): 50; Plant response rating, Pigweed [4, 18]: 80; Plant response rating, Kochia (kochia (Bassia scoparia) [5]; 1000 g ai/ha): 90; Plant response rating, Ragweed ([6]; 1000 g ai/ha): 90; Plant response rating, Barnyardgrass [7, 18]: 80; Plant response rating, Foxtail, Giant [8, 18]: 90; Plant response rating, Galium [9, 18]: 40; Plant response rating, Foxtail, Giant ([10]; 1000 g ai/ha): 100; Plant response rating, Pigweed ([11]; 1000 g ai/ha): 100; Plant response rating, Blackgrass [12, 18]: 60; Plant response rating, Ragweed [13, 18]: 80; Plant response rating, Barnyardgrass ([14]; 1000 g ai/ha): 100; Plant response rating, Wheat [15, 18]: 50
Cc1cc(Cl)c(NS(=O)(=O)C(F)(F)F)cc1C(=O)N1CC(C)OC(C)C1 (stereo not drawn) [Compound 20]	10	30	50	100	70	70	10	70	30	80	40	90	90	100	60	80	60	90	90	90	Foxtail, Giant plant response rating [10]: 80; Plant response rating, Foxtail, Giant ([10]; 500 g ai/ha): 100; Pigweed plant response rating [11]: 20; Plant response rating, Pigweed ([11]; 500 g ai/ha): 80; Plant response rating, Blackgrass [12, 16]: 30; Plant response rating, Blackgrass [12, 17]: 30; Plant response rating, Ragweed [13, 16]: 80; Plant response rating, Ragweed [13, 17]: 80; Barnyardgrass plant response rating [14]: 100; Plant response rating, Barnyardgrass ([14]; 500 g ai/ha): 100; Plant response rating, Wheat [15, 16]: 60; Plant response rating, Wheat [15, 17]: 70
Cc1cc(Cl)c(NS(=O)(=O)C(F)(F)F)cc1C(=O)N1CCSCC1 [Compound 26]	0	10	80	100	0	0	0	20	50	90	0	50	20	50	20	70	10	40	70	90	Foxtail, Giant plant response rating [10]: 100; Plant response rating, Foxtail, Giant ([10]; 500 g ai/ha): 100; Pigweed plant response rating [11]: 80; Plant response rating, Pigweed ([11]; 500 g ai/ha): 90; Plant response rating, Blackgrass [12, 16]: 0; Plant response rating, Blackgrass [12, 17]: 30; Plant response rating, Ragweed [13, 16]: 50; Plant response rating, Ragweed [13, 17]: 100; Barnyardgrass plant response rating [14]: 70; Plant response rating, Barnyardgrass ([14]; 500 g ai/ha): 100; Plant response rating, Wheat [15, 16]: 40; Plant response rating, Wheat [15, 17]: 60
Cc1cc(Cl)c(NS(=O)(=O)C(F)(F)F)cc1-c1cn(C)c(=O)n(C)c1=O [Compound 29]	30	80	90	100	70	90	0	10	40	50	40	90	60	90	50	90	90	90	90	90	Foxtail, Giant plant response rating [10]: 100; Plant response rating, Foxtail, Giant ([10]; 500 g ai/ha): 100; Pigweed plant response rating [11]: 70; Plant response rating, Pigweed ([11]; 500 g ai/ha): 90; Plant response rating, Blackgrass [12, 16]: 80; Plant response rating, Blackgrass [12, 17]: 90; Plant response rating, Ragweed [13, 16]: 80; Plant response rating, Ragweed [13, 17]: 90; Barnyardgrass plant response rating [14]: 40; Plant response rating, Barnyardgrass ([14]; 500 g ai/ha): 100; Plant response rating, Wheat [15, 16]: 70; Plant response rating, Wheat [15, 17]: 70
CCn1cc(-c2cc(N(S(=O)(=O)C(F)(F)F)S(=O)(=O)C(F)(F)F)c(C)cc2C)c(=O)n(C)c1=O [Compound 30]	10	50	90	90	40	70	0	40	40	60	70	90	20	40	90	90	70	90	70	90	Foxtail, Giant plant response rating [10]: 80; Plant response rating, Foxtail, Giant ([10]; 500 g ai/ha): 100; Pigweed plant response rating [11]: 20; Plant response rating, Pigweed ([11]; 500 g ai/ha): 60; Plant response rating, Blackgrass [12, 16]: 60; Plant response rating, Blackgrass [12, 17]: 80; Plant response rating, Ragweed [13, 16]: 40; Plant response rating, Ragweed [13, 17]: 40; Barnyardgrass plant response rating [14]: 90; Plant response rating, Barnyardgrass ([14]; 500 g ai/ha): 90; Plant response rating, Wheat [15, 16]: 60; Plant response rating, Wheat [15, 17]: 70
CCn1cc(-c2cc(NS(=O)(=O)C(F)(F)F)c(C)cc2C)c(=O)n(C)c1=O [Compound 32]	20	40	100	100	80	90	10	80	10	20	60	90	0	50	90	90	90	90	70	90	Foxtail, Giant plant response rating [10]: 100; Plant response rating, Foxtail, Giant ([10]; 500 g ai/ha): 100; Pigweed plant response rating [11]: 20; Plant response rating, Pigweed ([11]; 500 g ai/ha): 60; Plant response rating, Blackgrass [12, 16]: 90; Plant response rating, Blackgrass [12, 17]: 90; Plant response rating, Ragweed [13, 16]: 30; Plant response rating, Ragweed [13, 17]: 60; Barnyardgrass plant response rating [14]: 100; Plant response rating, Barnyardgrass ([14]; 500 g ai/ha): 100; Plant response rating, Wheat [15, 16]: 70; Plant response rating, Wheat [15, 17]: 70
COc1cc(-c2cc(N(S(=O)(=O)C(F)(F)F)S(=O)(=O)C(F)(F)F)c(C)cc2C)c(=O)n(C)n1 [Compound 35]	0	10	40	50	0	40	0	0	30	60	0	20	20	80	0	80	0	10	60	70	Foxtail, Giant plant response rating [10]: 60; Plant response rating, Foxtail, Giant ([10]; 500 g ai/ha): 90; Pigweed plant response rating [11]: 50; Plant response rating, Pigweed ([11]; 500 g ai/ha): 80; Plant response rating, Blackgrass [12, 16]: 20; Plant response rating, Blackgrass [12, 17]: 30; Plant response rating, Ragweed [13, 16]: 0; Plant response rating, Ragweed [13, 17]: 40; Barnyardgrass plant response rating [14]: 70; Plant response rating, Barnyardgrass ([14]; 500 g ai/ha): 90; Plant response rating, Wheat [15, 16]: 0; Plant response rating, Wheat [15, 17]: 40
